Results: US6608086B2, “Dihydropyridines and new uses thereof” (Synaptic Pharmaceutical Corporation, priority 1993, dated 2003)
Where two headings read alike, the source gives them in different places.

Columns and labels:
[1] = target: T1, α1B Human Adrenergic Receptor (Homo sapiens, UniProt P35368); assay: Radioligand binding, [3H]prazosin, cloned human α1B adrenergic receptor
T1 construct: The entire coding region of α1B (1563 bp); expressed in transfected cells
T1 sequence (P35368 1-520): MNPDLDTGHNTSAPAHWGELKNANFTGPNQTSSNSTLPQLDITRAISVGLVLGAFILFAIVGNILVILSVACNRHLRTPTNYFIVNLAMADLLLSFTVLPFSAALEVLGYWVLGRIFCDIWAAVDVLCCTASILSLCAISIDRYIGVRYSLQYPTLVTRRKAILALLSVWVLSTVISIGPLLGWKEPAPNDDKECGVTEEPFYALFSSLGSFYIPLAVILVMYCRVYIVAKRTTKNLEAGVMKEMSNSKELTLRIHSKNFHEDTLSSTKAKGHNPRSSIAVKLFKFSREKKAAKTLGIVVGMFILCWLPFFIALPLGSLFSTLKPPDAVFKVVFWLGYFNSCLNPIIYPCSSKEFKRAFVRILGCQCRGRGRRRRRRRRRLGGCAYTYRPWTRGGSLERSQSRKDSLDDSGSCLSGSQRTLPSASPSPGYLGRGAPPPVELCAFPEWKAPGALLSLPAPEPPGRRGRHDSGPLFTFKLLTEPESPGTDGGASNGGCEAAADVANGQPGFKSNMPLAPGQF
Description: (§1) The protocols for these experiments are given below.
(§2) These cell lines were prepared by transfecting the cloned cDNA or cloned genomic DNA or constructs containing both genomic DNA and cDNA encoding the human α-adrenergic receptors as follows:
α1B Human Adrenergic Receptor:
The construct involved ligating the full-length containing EcoRI brainstem cDNA fragment from λ ZapII into the expression vector. Stable cell lines were selected as described above.
(§3) Radioligand Binding Assays:
(§4) Transfected cells from culture flasks were scraped into 5 ml of 5 mM Tris-HCl, 5 mM EDTA, pH 7.5, and lysed by sonication. The cell lysates were centrifuged at 1000 rpm for 5 min at 4° C., and the supernatant was centrifuged at 30,000× g for 20 min at 4° C. The pellet was suspended in 50 mM Tris-HCl, 1 mM MgCl2, and 0.1% ascorbic acid at pH 7.5. Binding of the α1 antagonist [^3H]prazosin (0.5 nM, specific activity 76.2 Ci/mmol) to membrane preparations of LM(tk−) cells was done in a final volume of 0.25 ml and incubated at 37° C. for 20 min. Nonspecific binding was determined in the presence of 10 μM phentolamine. The reaction was stopped by filtration through GF/B filters using a cell harvester.

[2] = target: T2, α1C Human Adrenergic Receptor (Homo sapiens, UniProt P35348); assay: Radioligand binding, [3H]prazosin, cloned human α1C adrenergic receptor
T2 construct: The entire coding region of α1C (1401 bp); expressed in transfected cells
T2 sequence (P35348 1-466): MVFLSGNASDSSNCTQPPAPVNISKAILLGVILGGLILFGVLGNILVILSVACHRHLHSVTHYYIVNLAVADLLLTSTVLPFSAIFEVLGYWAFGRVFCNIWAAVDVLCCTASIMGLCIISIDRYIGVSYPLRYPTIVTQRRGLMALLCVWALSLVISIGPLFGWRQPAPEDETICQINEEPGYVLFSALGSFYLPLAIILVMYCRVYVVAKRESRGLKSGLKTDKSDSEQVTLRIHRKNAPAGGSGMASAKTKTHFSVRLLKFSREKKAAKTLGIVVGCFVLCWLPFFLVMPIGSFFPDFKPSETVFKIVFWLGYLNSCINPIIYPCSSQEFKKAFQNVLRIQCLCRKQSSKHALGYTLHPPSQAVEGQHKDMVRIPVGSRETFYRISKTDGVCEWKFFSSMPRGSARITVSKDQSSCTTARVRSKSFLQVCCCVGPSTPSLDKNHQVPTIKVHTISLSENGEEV
Description: as §1, §2
α1C Human Adrenergic Receptor:
The construct involved ligating three partial overlapping fragments: a 5′, 0.6 kb HincII genomic clone, a central 1.8 EcoRI hippocampal cDNA clone, and a 3′ 0.6Kb PstI genomic clone. The hippocampal cDNA fragment overlaps with the 5′ and 3′ genomic clones so that the HincII and PstI sites at the 5′ and 3′ ends of the cDNA clone, respectively, were utilized for ligation. This full-length clone was cloned into the KpnI site of the expression vector, using the 5′ and 3′ KpnI sites of the fragment, derived from vector (i.e., pBluescript) and 3′-untranslated sequences, respectively. Stable cell lines were selected as described above.
as §3, §4

[3] = target: T3, α1A Human Adrenergic Receptor (Homo sapiens, UniProt P25100); assay: Radioligand binding, [3H]prazosin, cloned human α1A adrenergic receptor; settings: [3H]prazosin
T3 construct: The entire coding region of α1A (1719 bp); expressed in transfected cells
T3 sequence (P25100 1-572): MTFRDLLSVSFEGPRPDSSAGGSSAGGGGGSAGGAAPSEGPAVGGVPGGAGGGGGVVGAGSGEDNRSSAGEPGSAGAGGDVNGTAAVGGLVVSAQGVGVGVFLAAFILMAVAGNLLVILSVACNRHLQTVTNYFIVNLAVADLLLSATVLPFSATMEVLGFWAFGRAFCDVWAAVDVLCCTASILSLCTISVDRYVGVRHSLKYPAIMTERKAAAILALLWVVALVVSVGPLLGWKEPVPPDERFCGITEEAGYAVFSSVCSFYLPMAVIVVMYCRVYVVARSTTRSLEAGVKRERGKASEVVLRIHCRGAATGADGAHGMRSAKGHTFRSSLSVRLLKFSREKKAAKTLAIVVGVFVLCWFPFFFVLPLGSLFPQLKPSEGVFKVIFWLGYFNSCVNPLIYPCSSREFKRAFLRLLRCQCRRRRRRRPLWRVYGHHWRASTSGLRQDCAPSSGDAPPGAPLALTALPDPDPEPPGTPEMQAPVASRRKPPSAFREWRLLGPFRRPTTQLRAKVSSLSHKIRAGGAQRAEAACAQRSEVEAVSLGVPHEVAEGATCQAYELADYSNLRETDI
Description: as §1, §2
α1A Human Adrenergic Receptor:
The cells were grown, in a controlled environment (37° C., 5% CO2), as monolayers in Dulbecco's modified Eagle's Medium (GIBCO, Grand Island, N.Y.) containing 25 mM glucose and supplemented with 10% bovine calf serum, 100 units/ml penicillin g, and 100 μg/ml streptomycin sulfate.
as §3, §4

[4] = cloned human α1B receptor, LM(tk−) cell membranes, read-out: pKi alpha-1 1b (converted)
[5] = cloned human α1C receptor, LM(tk−) cell membranes, read-out: pKi alpha-1 1c (converted)
[6] = cloned human α1A receptor, LM(tk−) cell membranes, read-out: pKi alpha-1 1a (converted)
[7] = cloned human receptor, LM(tk-) cell membranes, mean, read-out: PKi alpha-1 1a (converted)

Ki [1, 4] [nM] | melting point | Ki [2, 5] [nM] | Ki [3, 6] [nM] | Ki ([1]; PKi alpha-1 1b, cloned human receptor, LM(tk-) cell membranes, mean) [nM] | Ki ([2]; PKi alpha-1 1c, cloned human receptor, LM(tk-) cell membranes, mean) [nM] | Ki ([3]; PKi alpha-1 1a, cloned human receptor, LM(tk-) cell membranes, mean) [nM] | Compound | Ki ([1]; cloned human receptor, LM(tk-) cell membranes, mean, read-out: PKi alpha-1 1b (converted)) [nM] | Ki ([2]; cloned human receptor, LM(tk-) cell membranes, mean, read-out: PKi alpha-1 1c (converted)) [nM] | Ki [3, 7] [nM]
1000 | 133 °C (dec.) | 5.89 | 871 | – | – | – | CCC1=C(C(=O)NC)C(c2ccc([N+](=O)[O-])cc2)C(C(=O)NCCCN2CCC(c3ccccc3)(c3ccc(OC)cc3)CC2)=C(CC)N1 (stereo not drawn) [Example 107] | – | – | –
955 | 172 °C (dec.) | 5.75 | 1780 | – | – | – | CCNC(=O)C1=C(CC)NC(CC)=C(C(=O)NCCCN2CCC(c3ccccc3)(c3ccc(OC)cc3)CC2)C1c1ccc([N+](=O)[O-])cc1 (stereo not drawn) [Example 111, 2,6-Diethyl-5-(N-ethyl)carboxamido-1,4-dihydro-3-{N-[3-(4-(4-methoxy)phenyl-4-phenylpiperidin-1-yl)propyl]}carboxamido-4-(4-nitrophenyl)pyridine] | – | – | –
407 | 120 to 125 °C (dec.) | 3.47 | 832 | – | – | – | CCC1=C(C(=O)O)C(c2ccc([N+](=O)[O-])cc2)C(C(=O)NCCCN2CCC(c3ccccc3)(c3ccccc3)CC2)=C(COC)N1 (stereo not drawn) [Example 136, 6-Ethyl-1,4-dihydro-2-(methyloxy)methyl-4-(4-nitro)phenyl-3-(N-(3-(4,4-diphenylpiperidin-1-yl)propyl))carboxamidopyridine-5-carboxylic acid] | – | – | –
324 | 82 to 87 °C | 6.17 | 380 | – | – | – | CCNC(=O)C1=C(CC)NC(COCCN=[N+]=[N-])=C(C(=O)NCCCN2CCC(c3ccccc3)(c3ccccc3)CC2)C1c1ccc([N+](=O)[O-])cc1 (stereo not drawn) [Example 145, 2-((2-Azidoethyl)oxy)methyl-6-methyl-6-ethyl-5-(N-ethyl) carboxamido-1,4-dihydro-4-(4-nitro)phenyl-3-(N-(3-(4,4-diphenylpiperidin-1-yl)propyl))carboxamidopyridine] | – | – | –

The next lines start with the molecule.

Compound | Ki [1, 4] [nM] | melting point | Ki [2, 5] [nM] | Ki [3, 6] [nM] | Ki ([1]; PKi alpha-1 1b, cloned human receptor, LM(tk-) cell membranes, mean) [nM] | Ki ([2]; PKi alpha-1 1c, cloned human receptor, LM(tk-) cell membranes, mean) [nM] | Ki ([3]; PKi alpha-1 1a, cloned human receptor, LM(tk-) cell membranes, mean) [nM] | Ki ([1]; cloned human receptor, LM(tk-) cell membranes, mean, read-out: PKi alpha-1 1b (converted)) [nM] | Ki ([2]; cloned human receptor, LM(tk-) cell membranes, mean, read-out: PKi alpha-1 1c (converted)) [nM] | Ki [3, 7] [nM]
CCC1=C(C(=O)NC)C(c2ccc([N+](=O)[O-])cc2)C(C(=O)NCCCN2CCC(C(c3ccccc3)c3ccccc3)CC2)=C(CC)N1 (stereo not drawn) [Example 109, 2,6-Diethyl-1,4-dihydro-5-(N-methyl) carboxamido-4-(4-nitrophenyl)-3-{-[13-(4-diphenylmethylpiperidin-1-yl)propyl]}carboxamidopyridine] | 275 | 128 °C (dec.) | 66.1 | 851 | – | – | – | – | – | –
CCC1=C(C(=O)NC)C(c2ccc([N+](=O)[O-])cc2)C(C(=O)NCCCN2CCC(C(N)=O)(c3ccccc3)CC2)=C(CC)N1 (stereo not drawn) [Example 110, 3-{N-[3-(4-Carboxamido-4-phenylpiperidin-1-yl)propyl]}carboxamido-2,6-diethyl-1,4-dihydro-5-(N-methyl)carboxamido-4-(4-nitrophenyl)pyridine] | 31600 | 124 °C (dec.) | 1550 | 17800 | – | – | – | – | – | –
CC1=C(C(=O)O)C(c2ccc([N+](=O)[O-])cc2)C(C(=O)NCCCN2CCC(c3ccccc3)(c3ccccc3)CC2)=C(COCCN=[N+]=[N-])N1 (stereo not drawn) [Example 153, 2-((2-Azidoethyl)oxy)methyl-1,4-dihydro-6-methyl-4-(4-nitro) phenyl-3-(N-(3-(4,4-diphenylpiperidin-1-yl)propyl))carboxamidopyridine-5-carboxylic acid] | 380 | 135 °C (dec.) | 24 | 1910 | – | – | – | – | – | –
CC1=C(C(N)=O)C(c2ccc([N+](=O)[O-])cc2)C(C(=O)NCCCN2CCC(c3ccccc3)(c3ccccc3)CC2)=C(COCCN=[N+]=[N-])N1 (stereo not drawn) [Example 154, 2-((2-Azidoethyl)oxy)methyl-5-carboxamido-1,4-dihydro-6-methyl-4-(4-nitro)phenyl-3-(N-(3-(4,4-diphenylpiperidin-1-yl)propyl))carboxamidopyridine] | 87.1 | 90 to 95 °C (dec.) | 1.82 | 112 | – | – | – | – | – | –
CNC(=O)C1=C(C)NC(C)=C(C(=O)NCCCN2CCC(C(=O)OC)(c3ccccc3)CC2)C1c1ccc2c(c1)OCCO2 (stereo not drawn) [Example 164, 4-(3,4-Ethylenedioxyphenyl)-1,4-Dihydro-3-{N-[3-(4-methoxycarbonyl-4-phenylpiperidin-1-yl)propyl]}carboxamido-2,6-dimethyl-5-[(N-methyl)carboxamido]pyridine] | – | 101 to 104 °C | – | – | – | – | – | 1780 | 22.9 | 2950
CC1=C(C(N)=O)C(c2ccc([N+](=O)[O-])cc2)C(C(=O)NCCCN2CCC(c3ccccc3)(c3ccccc3)CC2)=C(CCCCCN)N1 (stereo not drawn) [Example 169, 2-(5-Aminopentyl)-5-carboxamido-1,4-dihydro-6-methyl-4-(4-nitrophenyl)-3-{N-[3-(4,4-diphenylpiperidin-1-yl)propyl]}carboxamidopyridine] | – | 75 to 78 °C | – | – | 229 | 7.24 | 513 | – | – | –
COC(=O)C1(c2ccccc2)CCN(CCCNC(=O)C2=C(C)NC(C)=C(C(=O)OCCC#N)C2c2ccc([N+](=O)[O-])cc2)CC1 (stereo not drawn) [Example 203, 5-(2-Cyanoethoxycarbonyl)-1,4-dihydro-2,6-dimethyl-3-{N-[3-(4-methoxycarbonyl-4-phenylpiperidin-1-yl)propyl]}carbo xamido-4-(4-nitrophenyl)pyridine] | – | 73 to 74 °C | – | – | – | – | – | – | – | 759
